Tests used:
Assay type in all cases: physicochemical
[1] = Retesting at radiotracer expiry: radiochemical purity (HPLC) after storage under ambient conditions; settings: for Expiry radiochemical purity, %: ambient storage
Method: Using the same HPLC system described for the radiochemical identity test, an appropriate volume (50 μL) of [^18F]DCFPyL was injected at a quantity injected that avoids uncorrected dead-time loss (for main peak) in the radioactive detection system. The percent radiochemical purity of [^18F]DCFPyL was determined by dividing the radioactivity associated with the [^18F]DCFPyL peak by total activity assayed in the chromatogram multiplied by 100. The product met this acceptance specification if the radiochemical purity was greater than or equal to 95%. A sample QC chromatogram is shown in FIG. 7 (DCFPyL−RT=7.6 min., k′=8.7).

[2] = Retesting at radiotracer expiry: pH by indicator paper; settings: specification 4.5-8.5; for pH, expiry: average n = 3, 360 min after EOS
Description: A drop of the [^18F]DCFPyL final product matrix was applied to pH indicator paper (ColorPhast-Indicator strip—pH 2-9; sensitivity of 0.3 to 0.5 units, EMD Chemicals Inc., Gibbstown, N.J.). The strip color was matched to an indicator chart. The product met this acceptance specification if the pH was between 4.5 and 8.5.

[3] = Retesting at radiotracer expiry: visual inspection (appearance); settings: n = 3, specification: clear colorless solution, no visible particulate matter
Description: Using remote handling equipment and appropriate radiation shielding (leaded glass), the vial containing the [^18F]DCFPyL product was visually inspected under bright light. The product met this acceptance specification if it was clear and colorless with no evidence of foreign matter.

[4] = large-scale RFM batch, 4.5 GBq/mL (122 mCi/mL), added sodium ascorbate, 99.7% at EOS
[5] = RFM synthesis (head prints REM)

For `O=C(O)CC[C@H](NC(=O)N[C@@H](CCCCNC(=O)c1ccc([18F])nc1)C(=O)O)C(=O)O` [[^18F]DCFPyL, 2-(3-{1-carboxy-5-[(6-[^18F]fluoro-pyridine-3-carbonyl)-amino]-pentyl}-ureido)-pentanedioic acid], the “Expiry radiochemical purity, %” value ([1]; ELIXYS synthesis, average n = 3, expiry 360 min after EOS) was 100%, the “Expiry radiochemical purity, %” value ([1]; RFM synthesis (head prints REM), average n = 3, expiry 360 min after EOS) was 100% and the “QC acceptance specifications at the 6-hour expiry” value ([1]; highest product yield validation run, 1.6 GBq/mL (44 mCi/mL)) was “meet all QC acceptance specifications”. The “radiochemical purity 3 hours post EOS” value [1, 4] was 98.8%, the “radiochemical purity 4 hours post EOS” value [1, 4] was 98.5% and the “radiochemical purity 6 hours post EOS” value [1, 4] was 98.2%. For the same compound, the “radiochemical purity at the 6-hour expiry” value ([1]; large-scale RFM batch, 5.7 GBq/mL (153 mCi/mL), no sodium ascorbate, 97.6% at EOS) was 51.1%, the “Expiry radiochemical purity, %” value ([1]; original first-in-human synthesis, average n = 3, expiry 240 min after EOS) was 100% and the “pH, expiry” value ([2]; ELIXYS synthesis) was 5. For the same compound, the “pH, expiry” value [2, 5] was 5, the “pH, initial” value ([2]; original synthesis, average n = 3, second row headed pH, initial, beside pH, expiry) was 5 and the “Appearance, 360 min after EOS” value ([3]; ELIXYS synthesis) was “Conforms”. The “Appearance, 360 min after EOS” value [3, 5] was “Conforms” and the “Appearance, 240 min after EOS” value ([3]; original synthesis) was “Conforms”.

From patent US10947197B2, “Synthesis of the radiolabeled prostate-specific membrane antigen (PSMA) inhibitor [18F]DCFPyL” (The Johns Hopkins University, priority 2016, dated 2021)
